Measurements reported in patent US20260216238A1, “TETRATHIOMOLYBDIC ACID FOR USE IN TREATING COPPER METABOLISM-ASSOCIATED DISEASES OR DISORDERS (WILSON DISEASE)” (Alexion Pharmaceuticals, Inc., priority 2023, published 2026).

Tested on: patients with Wilson disease (WD)
Test: UWDRS Part III total score, functional subscale and individual items (neurological examination)
Type: in vivo, human
Conditions: for UWDRS Part III Functional Subscale (0-10) change from baseline, Mean (SD) / UWDRS Part III (0-175) change from baseline, Mean (SD): pooled Studies 301 and 201
Experimental: The UWDRS scoring system was developed specifically for the motor and movement disorders associated with chronic copper neurotoxicity in WD. Some individual items/subscales of the UWDRS Part III (arising from a chair, gait, handwriting, and speech) in addition to the UWDRS Parts I, II, and III overall, were assessed to further define the range of burdensome signs and symptoms of WD, so as to further understand the assessment of treatment effects on patients with WD. The UWDRS scores for consciousness (Part I) and abnormal neurologic examination findings (Part III) will be determined by a trained neurologist rater who is blinded to study treatment randomization. These scores were used to provide a rigorous dataset for evaluating changes from baseline.
Unified Wilson Disease Rating Scale (Parts I, II, and III): The UWDRS is a clinical rating scale designed to evaluate the neurological manifestations of WD that generally can be divided into 3 movement disorder syndromes: dystonic, ataxic, and Parkinsonian syndrome. The UWDRS comprises 3 parts: UWDRS Part I (level of consciousness, item 1), UWDRS Part II (a patient-reported review of daily activity items [disability], items 2 to 11), and UWDRS Part III (a detailed neurological examination, items 12 to 34).
The UWDRS Part I and Part III were assessed by a neurologist who is blinded to the treatment randomization, while UWDRS Part II may be reported to a non-blinded member of the study team by the patient, family member, or caregiver. The UWDRS has not been formally evaluated in adolescents. However, the components of Part I (level of consciousness), Part II (patient or caregiver-reported disability) and Part III (neurologic examination findings) were not fundamentally different between adults and adolescents. Patients aged 12 years and older were expected to be able to comply with UWDRS assessments.
Pooled results from all such participants will be integrated together into one timeline to allow analyses of changes in UWDRS, long-term copper control, and long-term safety laboratory data.
Endpoints (directly measured non-ceruloplasmin-bound copper [dNCC], UWDRS III (rater blinded) total and individual item scores, Clinical Global Impression-Improvement [CGI-I]) were evaluated at baseline (BL) and Week 48 (W48). Normalization (score decrease to 0), improvement (≥1 point decrease), stability (no change), or worsening (≥1 point increase) of total and individual UWDRS III item scores were evaluated at W48.

[1] = Week 24, Cohort 1, Study 201, n=8
[2] = Week 24, Cohort 1, Study 301, TTM n=90, SoC n=47
[3] = Week 24, Cohort 1, Total (Studies 301, 201, 205), n=98
[4] = Week 24, Study 301 TTM long term set
[5] = Week 48, Cohort 1, Study 201, n=9
[6] = Week 48, Cohort 1, Study 205, n=27
[7] = Week 48, Cohort 1, Study 301, TTM n=91, SoC n=49
[8] = Week 48, Cohort 1, Total (Studies 301, 201, 205), n=127

With bis-choline tetrathiomolybdate [TTM] the “UWDRS Part III Functional Subscale (0-10) change from baseline, Mean (SD)” value (TTM exposure 144 weeks) was −1.042 (1.7227), the “UWDRS-III change from baseline, Mean (SD)” value (from here on “UWDRS-III change … (SD)”) (TTM exposure 168 weeks, N=18) was −18.08 (19.127) and the “UWDRS Part III (0-175) change from baseline, Mean (SD)” value (from here on “UWDRS Part III (0-175) change … (SD)”) (TTM exposure 168 weeks) was −18.08 (19.127). For the same substance, the “UWDRS Part III Functional Subscale (0-10) change from baseline, Mean (SD)” value (TTM exposure 168 weeks) was −1.841 (2.1818), the “UWDRS-III change … (SD)” value (TTM exposure 192 weeks, N=19) was −12.65 (19.476) and the “UWDRS Part III (0-175) change … (SD)” value (TTM exposure 192 weeks) was −12.65 (19.476). The “UWDRS Part III Functional Subscale (0-10) change from baseline, Mean (SD)” value (TTM exposure 192 weeks) was −1.250 (2.1459), the “UWDRS-III change … (SD)” value (TTM exposure 216 weeks, N=14) was −16.17 (19.323) and the “UWDRS Part III (0-175) change … (SD)” value (TTM exposure 216 weeks) was −16.17 (19.323). The “UWDRS Part III Functional Subscale (0-10) change from baseline, Mean (SD)” value (TTM exposure 216 weeks) was −1.519 (2.3987), the “UWDRS-III change … (SD)” value (TTM exposure 240 weeks, N=13) was −11.48 (16.473) and the “UWDRS Part III (0-175) change … (SD)” value (TTM exposure 240 weeks) was −11.48 (16.473). The “UWDRS Part III Functional Subscale (0-10) change from baseline, Mean (SD)” value (TTM exposure 240 weeks) was −0.898 (1.3384), the “UWDRS-III change … (SD)” value (TTM exposure 264 weeks, N=13) was −14.00 (16.513) and the “UWDRS Part III (0-175) change … (SD)” value (TTM exposure 264 weeks) was −14.00 (16.513). The “UWDRS Part III Functional Subscale (0-10) change from baseline, Mean (SD)” value (TTM exposure 264 weeks) was −0.995 (1.2369), the “UWDRS Part III-gait (0-10), Difference at 48 weeks, LSM” value (TTM vs SoC, P 0.4325) was −0.15 and the “UWDRS Part III-handwriting (0-4), Difference at 48 weeks, LSM” value (TTM vs SoC, P 0.5077) was −0.1. For the same substance, the “UWDRS Part III functional subscale (0-10), Difference at 48 weeks, LSM” value (TTM vs SoC, P 0.6191) was −0.067, the “UWDRS Part III-arising from chair (0-4), Difference at 48 weeks, LSM” value (TTM vs SoC, P 0.6869) was 0.0 and the “UWDRS Part III-speech (0-4), Difference at 48 weeks, LSM” value (TTM vs SoC, P 0.7238) was 0.0. For the same substance, the “UWDRS Part III (0-175), Difference at 48 weeks, LSM” value (TTM vs SoC, P 0.9441) was −0.09, the “UWDRS III total, LSM difference (SE) TTM versus SoC” value (W0-W48, cohort 1 incomplete response or intolerant, p=0.7084) was −0.53 (1.426) and the “UWDRS-III, Change from Baseline, Max” value [1] was 1.0. For the same substance, the “UWDRS-III, Change from Baseline, Mean” value [1] was −13.82, the “UWDRS-III, Change from Baseline, Median” value [1] was −13.50 and the “UWDRS-III, Change from Baseline, Min” value [1] was −35.0,. The “UWDRS-III, Change from Baseline, Q1” value [1] was −19.80,, the “UWDRS-III, Change from Baseline, Q3” value [1] was −5.00 and the “UWDRS-III, Change from Baseline, Max” value [2] was 13.0. The “UWDRS-III, Change from Baseline, Mean” value [2] was −0.86, the “UWDRS-III, Change from Baseline, Median” value [2] was 0.00 and the “UWDRS-III, Change from Baseline, Min” value [2] was −18.7,. The “UWDRS-III, Change from Baseline, Q1” value [2] was −3.00,, the “UWDRS-III, Change from Baseline, Q3” value [2] was 1.00 and the “UWDRS-III, Change from Baseline, Max” value [3] was 13.0. For the same substance, the “UWDRS-III, Change from Baseline, Mean” value [3] was −1.92, the “UWDRS-III, Change from Baseline, Median” value [3] was −1.00 and the “UWDRS-III, Change from Baseline, Min” value [3] was −35.0,. For the same substance, the “UWDRS-III, Change from Baseline, Q1” value [3] was −4.00,, the “UWDRS-III, Change from Baseline, Q3” value [3] was 1.00 and the “UWDRS-III, Change from Baseline, LSM Diff (TTM vs. SoC)” value (Week 24, Cohort 1, TTM Total vs SoC Study 301, P-value 0.3884) was −1.00. The “UWDRS-III, Change from Baseline, LSM” value (Week 24, Cohort 1, TTM Total, SoC Study 301) was −1.72, the “UWDRS Part III (0-175) change from baseline, LSM” value [4] was −1.32 and the “UWDRS Part III (0-175) change from baseline, Mean” value [4] was −0.74. The “UWDRS Part III functional subscale (0-10) change from baseline, LSM” value [4] was −0.158, the “UWDRS Part III functional subscale (0-10) change from baseline, Mean” value [4] was −0.139 and the “UWDRS Part III-arising from chair (0-4) change from baseline, LSM” value [4] was −0.1. The “UWDRS Part III-arising from chair (0-4) change from baseline, Mean” value [4] was 0.0, the “UWDRS Part III-gait (0-4) change from baseline, LSM” value [4] was −0.21 and the “UWDRS Part III-gait (0-4) change from baseline, Mean” value [4] was −0.17. The “UWDRS Part III-handwriting (0-4) change from baseline, LSM” value [4] was 0.0, the “UWDRS Part III-handwriting (0-4) change from baseline, Mean” value [4] was −0.1 and the “UWDRS Part III-speech (0-4) change from baseline, LSM” value [4] was −0.1. For the same substance, the “UWDRS Part III-speech (0-4) change from baseline, Mean” value [4] was −0.1, the “UWDRS-III, Change from Baseline, Max” value [5] was 2.0 and the “UWDRS-III, Change from Baseline, Mean” value [5] was −19.44. For the same substance, the “UWDRS-III, Change from Baseline, Median” value [5] was −13.00, the “UWDRS-III, Change from Baseline, Min” value [5] was −48.0, and the “UWDRS-III, Change from Baseline, Q1” value [5] was −29.00,. For the same substance, the “UWDRS-III, Change from Baseline, Q3” value [5] was −9.00, the “UWDRS-III, Change from Baseline, Max” value [6] was 6.0 and the “UWDRS-III, Change from Baseline, Mean” value [6] was −2.81. The “UWDRS-III, Change from Baseline, Median” value [6] was −2.00, the “UWDRS-III, Change from Baseline, Min” value [6] was −17.0, and the “UWDRS-III, Change from Baseline, Q1” value [6] was −6.00,. For the same substance, the “UWDRS-III, Change from Baseline, Q3” value [6] was 0.00, the “UWDRS-III, Change from Baseline, Max” value [7] was 31.0 and the “UWDRS-III, Change from Baseline, Mean” value [7] was −2.24. For the same substance, the “UWDRS-III, Change from Baseline, Median” value [7] was −1.00, the “UWDRS-III, Change from Baseline, Min” value [7] was −28.0, and the “UWDRS-III, Change from Baseline, Q1” value [7] was −4.00,. The “UWDRS-III, Change from Baseline, Q3” value [7] was 0.00, the “UWDRS-III, Change from Baseline, Max” value [8] was 31.0 and the “UWDRS-III, Change from Baseline, Mean” value [8] was −3.58.
